Measured values: patent publication US20100272797A1, “Pharmaceutical Composition for Treating Hepatitis C Virus Infection Comprising HMG-COA Reductase Inhibitor and Bile Acid” (HANALL PHARMACEUTICAL COMPANY, LTD., priority 2007, published 2010)

Tests used:
[1] = in vivo, absorbed by passive diffusion; cited from earlier work
EMC virus = test: Test Example 1: inhibitory effects on EMCV in A549 cells, MTT assay; type: cell-based; conditions: A549 cells infected with EMC virus, IFN 20 IU/ml, fluvastatin 5 μM, UDCA 61.9 μM as named
[2] = human, in vivo; cited from earlier work

Compound	absorbed drug excreted in the form of bile [1]	Average (MTT absorbance) (EMC virus; absorbance 550-600 nm, N 10)	Survival rate (antivirus activity) (EMC virus; vehicle = 0.0)	hepatitis patients with continuous increase in transaminase levels [2]	share of such patients with increase in blood transaminase levels within 12 weeks after administration [2]	transaminase level elevation relative to upper limit of normal [2]
C[C@H](CCC(=O)O)[C@H]1CC[C@H]2[C@@H]3[C@@H](O)C[C@@H]4C[C@H](O)CC[C@]4(C)[C@H]3CC[C@]12C [ursodeoxycholic acid]	about 50%	–	–	–	–	–
CC(C)n1c(/C=C/C(O)CC(O)CC(=O)O)c(-c2ccc(F)cc2)c2ccccc21 (racemic) [Fluvastatin, [R,S-(E)]-(±)-7-[3-(4-fluorophenyl)-1-(1-methylethyl)-1H-indol-2-yl]-3,5-dihydroxy-6-heptanoate]	–	0.8638	1.7	about 1.1%	At least 90%	at least 3 times the upper limit of normal
